One molecule from patent publication US20240058413A1, “GRAPE SEED EXTRACT PREPARATION PROCESS AND EXTRACTS THUS OBTAINED” (Distillerie Bonollo Umberto - S.P.A. Con Sigla "U.B. S.P.A.", priority 2020, published 2024) can be followed below.

Test [1] can be described thus: ORAC test (Oxygen Radical Absorbance Capacity). The conditions noted are these: fluorescence decay under peroxyl radical flow; Trolox as reference standard. An excerpt:
ORAC Test The ORAC method (Oxygen Radical Absorbance Capacity) is one of the most common methods for determining radical trapping capacity against peroxyl radicals. The principle of the test is based on the measurement of the decrease in the fluorescence intensity of a fluorescent target molecule (for example fluorescein), under a constant flow of peroxyl radicals, generated by the thermal decomposition of an azo compound. The results are expressed as equivalent Trolox® micromoles, using this compound as the reference standard.

A short description of test [2]: DPPH test (antioxidant power). Particulars: decrease of DPPH radical peak at 517 nm, spectrophotometry. The method, then:
DPPH Test The DPPH test allows determining the antioxidant power by reacting the sample to be analyzed with a solution of DPPH [2,2-diphenyl-1-picrylhydrazyl, PM 394.33, […]] and analyzing the decrease in the peak at 517 of the DPPH^• radical at UV. Antioxidant compounds which are capable of transferring a hydrogen atom to the radical cause a loss of absorbance of the solution. The decrease of the DPPH^• radical peak at 517 nm is then analyzed by spectrophotometry after a predetermined incubation time. This decrease (discoloration) is proportional to the antioxidant load present in the sample. The results can also be expressed as IC50, i.e., the concentration of antioxidant compound which causes an initial 50% decrease in DPPH^•.

`O=C1O[C@H]([C@@H](O)CO)C(O)=C1O` [Ascorbic acid]: the ORAC in test [1] is given as 2900 ± 310 μmol Trolox ® equivalent/g of sample. Moreover, the “DPPH IC50” value in test [2] turned out to be 7.196 ± 0.852 µg/mL.
